# In ChEMBL document CHEMBL1201861, “Genomics of Drug Sensitity in Cancer screening data, Wellcome Trust Sanger Institute”:
# Assays:
# Assay in all cases: cells
# Settings in all cases: Homo sapiens
# COR-L23 = assay type: functional, cell-based;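 also: cell viability assay measuring how strongly compounds suppress growth of COR-L23 cells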
# Description: SANGER: Inhibition of human COR-L23 cell growth in a cell viability assay.
# D-392MG = assay type: functional, cell-based
# GCT = assay type: functional, cell-based;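 also: GCT cell line proliferation inhibition, read out with a cell viability assay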
# Description: SANGER: Inhibition of human GCT cell growth in a cell viability assay.
# GMS-10 = assay type: functional, cell-based;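 also: growth inhibition of GMS-10 cells, read out as cell viability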
# Description: SANGER: Inhibition of human GMS-10 cell growth in a cell viability assay.
# HCC1395 = assay type: functional, cell-based;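 also: growth inhibition of HCC1395 cells, read out by a cell viability assay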
# Description: SANGER: Inhibition of human HCC1395 cell growth in a cell viability assay.
# HCC1954 = assay type: functional, cell-based;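 also: growth inhibition of human HCC1954 cells, read out with a cell viability assay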
# Description: SANGER: Inhibition of human HCC1954 cell growth in a cell viability assay.
# HEC-1 = assay type: functional, cell-based;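 also: growth inhibition of the cell line, read out with a cell viability assay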
# Description: SANGER: Inhibition of human HEC-1 cell growth in a cell viability assay.
# HLE = assay type: functional, cell-based;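 also: growth inhibition of human HLE cells, read out by a cell viability assay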
# Description: SANGER: Inhibition of human HLE cell growth in a cell viability assay.
# HOP-92 = assay type: functional, cell-based;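 also: cell viability readout, with IC50 reflecting inhibition of HOP-92 cell growth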
# Description: SANGER: Inhibition of human HOP-92 cell growth in a cell viability assay.
# HSC-2 = assay type: functional, cell-based;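 also: growth inhibition of human HSC-2 cells, read out by a cell viability assay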
# Description: SANGER: Inhibition of human HSC-2 cell growth in a cell viability assay.
# HT-3 = assay type: functional, cell-based;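 also: growth inhibition measured with a cell viability readout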
# Description: SANGER: Inhibition of human HT-3 cell growth in a cell viability assay.
# HuCCT-1 = assay type: functional, cell-based, HuCCT1;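 also: growth inhibition of HuCCT-1 cells, read out by a cell viability assay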
# Description: SANGER: Inhibition of human HuCCT1 cell growth in a cell viability assay.
# KOSC-2 = assay type: functional, cell-based;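 also: growth inhibition of KOSC-2 cells, read out by a cell viability assay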
# Description: SANGER: Inhibition of human KOSC-2 cell growth in a cell viability assay.
# KP-N-YN = assay type: functional, cell-based;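 also: growth inhibition of KP-N-YN cells, read out with a cell viability assay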
# Description: SANGER: Inhibition of human KP-N-YN cell growth in a cell viability assay.
# KYSE-140 = assay type: functional, cell-based;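 also: cell viability assay measuring growth inhibition in human KYSE-140 cells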
# Description: SANGER: Inhibition of human KYSE-140 cell growth in a cell viability assay.
# KYSE-180 = assay type: functional, cell-based;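 also: growth inhibition of KYSE-180 cells, read out with a cell viability assay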
# Description: SANGER: Inhibition of human KYSE-180 cell growth in a cell viability assay.
# KYSE-270 = assay type: functional, cell-based;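 also: cell growth inhibition measured with a viability assay in the human KYSE-270 line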
# Description: SANGER: Inhibition of human KYSE-270 cell growth in a cell viability assay.
# LoVo = assay type: functional, cell-based;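 also: growth inhibition of human LoVo cells, read out with a cell viability assay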
# Description: SANGER: Inhibition of human LoVo cell growth in a cell viability assay.
# MDA-MB-361 = assay type: functional, cell-based
# MEL-HO = assay type: functional, cell-based
# Description: SANGER: Inhibition of human MEL-HO cell growth in a cell viability assay.
# MEL-JUSO = assay type: functional, cell-based;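 also: growth inhibition of human MEL-JUSO cells, read out with a cell viability assay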
# Description: SANGER: Inhibition of human MEL-JUSO cell growth in a cell viability assay.
# MFE-280 = assay type: functional, cell-based;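 also: growth inhibition of MFE-280 cells, determined with a cell viability readout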
# Description: SANGER: Inhibition of human MFE-280 cell growth in a cell viability assay.
# MKN-7 = assay type: functional, cell-based;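 also: growth inhibition of MKN-7 cells, read out with a cell viability assay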
# Description: SANGER: Inhibition of human MKN7 cell growth in a cell viability assay.
# NCI-H1793 = assay type: functional, cell-based;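 also: cell growth inhibition, read out by a cell viability assay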
# Description: SANGER: Inhibition of human NCI-H1793 cell growth in a cell viability assay.
# NCI-H2170 = assay type: functional, cell-based;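 also: cell viability assay measuring growth inhibition of human NCI-H2170 cancer cells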
# Description: SANGER: Inhibition of human NCI-H2170 cell growth in a cell viability assay.
# NCI-H2405 = assay type: functional, cell-based;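 also: growth inhibition of the human cell line, read out with a cell viability assay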
# Description: SANGER: Inhibition of human NCI-H2405 cell growth in a cell viability assay.
# NCI-H358 = assay type: functional, cell-based;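 also: growth inhibition of NCI-H358 human cells, read out with a cell viability assay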
# Description: SANGER: Inhibition of human NCI-H358 cell growth in a cell viability assay.
# NCI-N87 = assay type: functional, cell-based;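 also: growth inhibition of human NCI-N87 cells, read out with a cell viability assay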
# Description: SANGER: Inhibition of human NCI-N87 cell growth in a cell viability assay.
# NUGC-3 = assay type: functional, cell-based;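 also: growth inhibition of human NUGC-3 cells, read out with a cell viability assay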
# Description: SANGER: Inhibition of human NUGC-3 cell growth in a cell viability assay.
# NY = assay type: functional, cell-based
# Description: SANGER: Inhibition of human NY cell growth in a cell viability assay.
# OVCAR-8 = assay type: functional, cell-based;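 also: growth inhibition of human OVCAR-8 cells, read out by a cell viability assay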
# Description: SANGER: Inhibition of human OVCAR-8 cell growth in a cell viability assay.
# SK-MEL-28 = assay type: functional, cell-based;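 also: growth inhibition of human SK-MEL-28 cells, read out with a cell viability assay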
# Description: SANGER: Inhibition of human SK-MEL-28 cell growth in a cell viability assay.
# SK-MEL3 = assay type: functional, cell-based, SK-MEL-3;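 also: growth inhibition of human SK-MEL-3 cells, read out with a cell viability assay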
# Description: SANGER: Inhibition of human SK-MEL-3 cell growth in a cell viability assay.
# SK-MES-1 = assay type: functional, cell-based;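 also: growth inhibition of human SK-MES-1 cells, read out with a cell viability assay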
# Description: SANGER: Inhibition of human SK-MES-1 cell growth in a cell viability assay.
# SKG-IIIa = assay type: functional, cell-based;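 also: cell growth inhibition, read out with a cell viability assay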
# Description: SANGER: Inhibition of human SKG-IIIa cell growth in a cell viability assay.
# SNU-387 = assay type: functional, cell-based
# Description: SANGER: Inhibition of human SNU-387 cell growth in a cell viability assay.
# T84 = assay type: functional, cell-based;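 also: growth inhibition measured with a cell viability readout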
# Description: SANGER: Inhibition of human T84 cell growth in a cell viability assay.
# A-375 = assay type: functional, cell-based;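 also: growth inhibition of A375 cells, read out with a cell viability assay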
# Description: SANGER: Inhibition of human A375 cell growth in a cell viability assay.
# AN3-CA = assay type: functional, cell-based;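 also: growth inhibition of human AN3-CA cells measured by a cell viability assay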
# Description: SANGER: Inhibition of human AN3-CA cell growth in a cell viability assay.
# AU565 = assay type: functional, cell-based;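 also: cell viability assay measuring growth inhibition of human AU565 cells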
# Description: SANGER: Inhibition of human AU565 cell growth in a cell viability assay.
# BHY = assay type: functional, cell-based;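 also: cell growth inhibition read out by a viability assay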
# Description: SANGER: Inhibition of human BHY cell growth in a cell viability assay.
# C32 = assay type: functional, cell-based;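 also: cell viability assay, with IC50 reflecting inhibition of C32 cell growth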
# Description: SANGER: Inhibition of human C32 cell growth in a cell viability assay.
# CAKI-1 = assay type: functional, cell-based;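 also: growth inhibition of CAKI-1 cells, measured by a cell viability assay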
# Description: SANGER: Inhibition of human CAKI-1 cell growth in a cell viability assay.
# CAL-27 = assay type: functional, cell-based;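 also: Viability-based readout, IC50 reflecting inhibition of CAL-27 cell growth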
# Description: SANGER: Inhibition of human CAL-27 cell growth in a cell viability assay.
# U-118-MG = assay type: functional, cell-based
# Description: SANGER: Inhibition of human U-118-MG cell growth in a cell viability assay.
# U2OS = assay type: functional, cell-based, U-2-OS;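 also: growth inhibition of human U-2-OS cells, determined with a cell viability assay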
# Description: SANGER: Inhibition of human U-2-OS cell growth in a cell viability assay.
# YKG-1 = assay type: functional, cell-based;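 also: cell growth inhibition, read out with a viability assay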
# Description: SANGER: Inhibition of human YKG-1 cell growth in a cell viability assay.
# HSC-4 = assay type: functional, cell-based;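 also: growth inhibition of human HSC-4 cells, read out with a cell viability assay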
# Description: SANGER: Inhibition of human HSC-4 cell growth in a cell viability assay.
compound,measurement,setting,value
O=c1cc(N2CCOCC2)oc2c(-c3cccc4c3sc3ccccc34)cccc12,IC50,COR-L23,> 2 µM
same,IC50,D-392MG,> 2 µM
same,IC50,GCT,> 2 µM
same,IC50,GMS-10,> 2 µM
same,IC50,HCC1395,> 2 µM
same,IC50,HCC1954,> 2 µM
same,IC50,HEC-1,> 2 µM
same,IC50,HLE,> 2 µM
same,IC50,HOP-92,> 2 µM
same,IC50,HSC-2,> 2 µM
same,IC50,HT-3,> 2 µM
same,IC50,HuCCT-1,> 2 µM
same,IC50,KOSC-2,> 2 µM
same,IC50,KP-N-YN,> 2 µM
same,IC50,KYSE-140,> 2 µM
same,IC50,KYSE-180,> 2 µM
same,IC50,KYSE-270,> 2 µM
same,IC50,LoVo,0.867 µM
same,IC50,MDA-MB-361,> 2 µM
same,IC50,MEL-HO,> 2 µM
same,IC50,MEL-JUSO,> 2 µM
same,IC50,MFE-280,> 2 µM
same,IC50,MKN-7,> 2 µM
same,IC50,NCI-H1793,1.46 µM
same,IC50,NCI-H2170,> 2 µM
same,IC50,NCI-H2405,> 2 µM
same,IC50,NCI-H358,> 2 µM
same,IC50,NCI-N87,> 2 µM
same,IC50,NUGC-3,> 2 µM
same,IC50,NY,> 2 µM
same,IC50,OVCAR-8,> 2 µM
same,IC50,SK-MEL-28,> 2 µM
same,IC50,SK-MEL3,> 2 µM
same,IC50,SK-MES-1,> 2 µM
same,IC50,SKG-IIIa,> 2 µM
same,IC50,SNU-387,> 2 µM
same,IC50,T84,> 2 µM
same,IC50,A-375,> 2 µM
same,IC50,AN3-CA,> 2 µM
same,IC50,AU565,> 2 µM
same,IC50,BHY,> 2 µM
same,IC50,C32,> 2 µM
same,IC50,CAKI-1,> 2 µM
same,IC50,CAL-27,> 2 µM
same,IC50,U-118-MG,> 2 µM
same,IC50,U2OS,> 2 µM
same,IC50,YKG-1,> 2 µM
NC(=O)c1ncn([C@@H]2O[C@H](COP(=O)(O)O)[C@@H](O)[C@H]2O)c1N,IC50,COR-L23,728 µM
same,IC50,D-392MG,> 2000 µM
same,IC50,GCT,1390 µM
same,IC50,GMS-10,663 µM
same,IC50,HCC1395,> 2000 µM
same,IC50,HCC1954,> 2000 µM
same,IC50,HEC-1,> 2000 µM
same,IC50,HLE,> 2000 µM
same,IC50,HOP-92,1690 µM
same,IC50,HSC-2,846 µM
same,IC50,HSC-4,874 µM
same,IC50,HT-3,472 µM
same,IC50,HuCCT-1,1080 µM
same,IC50,KOSC-2,526 µM
same,IC50,KP-N-YN,> 2000 µM
same,IC50,KYSE-140,1730 µM
same,IC50,KYSE-180,453 µM
same,IC50,KYSE-270,> 2000 µM
same,IC50,LoVo,> 2000 µM
same,IC50,MDA-MB-361,1310 µM
same,IC50,MEL-HO,397 µM
same,IC50,MEL-JUSO,> 2000 µM
same,IC50,MFE-280,> 2000 µM
same,IC50,MKN-7,> 2000 µM
same,IC50,NCI-H1793,> 2000 µM
same,IC50,NCI-H2170,> 2000 µM
same,IC50,NCI-H2405,> 2000 µM
same,IC50,NCI-H358,> 2000 µM
same,IC50,NCI-N87,1490 µM
same,IC50,NUGC-3,> 2000 µM
same,IC50,NY,495 µM
same,IC50,OVCAR-8,> 2000 µM
same,IC50,SK-MEL-28,> 2000 µM
same,IC50,SK-MES-1,> 2000 µM
same,IC50,SKG-IIIa,> 2000 µM
same,IC50,SNU-387,> 2000 µM
same,IC50,T84,> 2000 µM
same,IC50,A-375,> 2000 µM
same,IC50,AN3-CA,> 2000 µM
same,IC50,AU565,357 µM
same,IC50,BHY,405 µM
same,IC50,CAKI-1,> 2000 µM
same,IC50,CAL-27,> 2000 µM
same,IC50,U-118-MG,1430 µM
same,IC50,U2OS,> 2000 µM
same,IC50,YKG-1,552 µM
Cn1c(=O)n(-c2ccc(C(C)(C)C#N)cc2)c2c3cc(-c4cnc5ccccc5c4)ccc3ncc21 [DACTOLISIB],IC50,COR-L23,0.0492 µM
same,IC50,D-392MG,0.108 µM
same,IC50,GCT,0.0137 µM
same,IC50,GMS-10,0.174 µM
same,IC50,HCC1395,0.698 µM
same,IC50,HCC1954,0.513 µM
same,IC50,HEC-1,0.0675 µM
same,IC50,HLE,0.0535 µM
same,IC50,HOP-92,0.0265 µM
same,IC50,HSC-2,0.0959 µM
same,IC50,HT-3,0.38 µM
same,IC50,HuCCT-1,0.0908 µM
same,IC50,KOSC-2,0.07 µM
same,IC50,KP-N-YN,> 2 µM
same,IC50,KYSE-140,0.0506 µM
same,IC50,KYSE-180,0.0462 µM
same,IC50,KYSE-270,0.131 µM
same,IC50,LoVo,0.0484 µM
same,IC50,MDA-MB-361,0.061 µM
same,IC50,MEL-HO,0.024 µM
same,IC50,MFE-280,0.00999 µM
same,IC50,MKN-7,0.124 µM
same,IC50,NCI-H1793,0.0128 µM
same,IC50,NCI-H2170,0.115 µM
same,IC50,NCI-H2405,0.0549 µM
same,IC50,NCI-H358,1.96 µM
same,IC50,NCI-N87,0.111 µM
same,IC50,NUGC-3,0.0163 µM
same,IC50,NY,1.17 µM
same,IC50,OVCAR-8,0.0313 µM
same,IC50,SK-MEL-28,0.112 µM
same,IC50,SK-MEL3,0.148 µM
same,IC50,SK-MES-1,0.0533 µM
same,IC50,SKG-IIIa,0.129 µM
same,IC50,SNU-387,0.104 µM
same,IC50,T84,> 2 µM
same,IC50,A-375,0.0239 µM
same,IC50,AN3-CA,0.00556 µM
same,IC50,AU565,0.213 µM
same,IC50,BHY,0.0427 µM
same,IC50,C32,0.0538 µM
same,IC50,CAKI-1,0.0364 µM
same,IC50,CAL-27,0.217 µM
same,IC50,U-118-MG,0.134 µM
same,IC50,U2OS,0.0295 µM
same,IC50,YKG-1,0.053 µM
CCCS(=O)(=O)Nc1ccc(F)c(C(=O)c2c[nH]c3ncc(Cl)cc23)c1F [PLX-4720],IC50,COR-L23,> 10 µM
same,IC50,D-392MG,> 10 µM
same,IC50,GCT,8.75 µM
same,IC50,GMS-10,> 10 µM
same,IC50,HCC1395,> 10 µM
same,IC50,HCC1954,> 10 µM
same,IC50,HEC-1,> 10 µM
same,IC50,HLE,> 10 µM
same,IC50,HOP-92,> 10 µM
same,IC50,HSC-2,> 10 µM
same,IC50,HT-3,> 10 µM
same,IC50,HuCCT-1,> 10 µM
same,IC50,KOSC-2,> 10 µM
same,IC50,KP-N-YN,> 10 µM
same,IC50,KYSE-140,> 10 µM
same,IC50,KYSE-180,> 10 µM
same,IC50,KYSE-270,> 10 µM
same,IC50,LoVo,> 10 µM
same,IC50,MDA-MB-361,> 10 µM
same,IC50,MEL-HO,0.412 µM
same,IC50,MEL-JUSO,> 10 µM
same,IC50,MFE-280,> 10 µM
same,IC50,MKN-7,> 10 µM
same,IC50,NCI-H1793,> 10 µM
same,IC50,NCI-H2170,> 10 µM
same,IC50,NCI-H2405,> 10 µM
same,IC50,NCI-H358,2.92 µM
same,IC50,NCI-N87,> 10 µM
same,IC50,NUGC-3,> 10 µM
same,IC50,NY,> 10 µM
same,IC50,OVCAR-8,> 10 µM
same,IC50,SK-MEL-28,1.05 µM
same,IC50,SK-MEL3,0.516 µM
same,IC50,SK-MES-1,> 10 µM
same,IC50,SKG-IIIa,> 10 µM
same,IC50,SNU-387,> 10 µM
same,IC50,T84,> 10 µM
same,IC50,A-375,0.674 µM
same,IC50,AN3-CA,> 10 µM
same,IC50,AU565,> 10 µM
same,IC50,BHY,> 10 µM
same,IC50,C32,0.151 µM
same,IC50,CAKI-1,> 10 µM
same,IC50,CAL-27,> 10 µM
same,IC50,U-118-MG,> 10 µM
same,IC50,U2OS,> 10 µM
same,IC50,YKG-1,> 10 µM
